According to patent US20250144067A1, “PERSONALIZED STARVATION THERAPY FOR CANCER” (Faeth Therapeutics, Inc., priority 2021, published 2025):
Counter-ions that a name gives are not always drawn. Like-named read-outs stand apart in the source and are kept apart here.

Assays:
[1] = test system: NCI-H292 lung cancer cells; experiment: FDA drug screening, complete media vs cholesterol-free media with simvastatin (TABLE 2); format: cell-based, human
[2] = test system: NCI-H292 lung cancer cells; experiment: FDA drug screening, complete media vs cholesterol-free media without statin (TABLE 1); format: cell-based, human
[3] = NCI-H292 cells, FDA drug library screen, cholesterol-free media with simvastatin 0.04 μM
[4] = NCI-H292 cells, FDA drug library screen, complete media
[5] = NCI-H292 cells, cholesterol-free media without statin
[6] = NCI-H292 cells, cholesterol-free media with simvastatin 0.04 μM, FDA drug library screen (TABLE 2)
[7] = NCI-H292 cells, complete media, FDA drug library screen (TABLE 2)
[8] = complete media minus cholesterol-free media + simvastatin (0.04 μM), >0 enhanced anti-cancer activity, about 0 neutral, <0 antagonist
[9] = Complete minus Cholesterol-free, >0 enhanced anti-cancer activity, about 0 neutral, <0 antagonist
[10] = complete media vs cholesterol-free media + simvastatin (0.04 μM), […]
[11] = Complete minus Cholesterol-free, […]
[12] = NCI-H292 cells, FDA drug library screen, cholesterol-free media without statin
[13] = NCI-H292 cells, drug in cholesterol-free media with simvastatin 0.04 μM
[14] = NCI-H292 cells, drug in complete media
[15] = complete media vs cholesterol-free media + simvastatin (0.04 μM), >0 enhanced anti-cancer activity, about 0 neutral, <0 antagonist
[16] = complete media minus cholesterol-free media + simvastatin, >0 enhanced anti-cancer activity, about 0 neutral, <0 antagonist
[17] = Complete minus Cholesterol-free, greater than 0 enhanced anti-cancer activity, about 0 neutral, below 0 antagonist
[18] = NCI-H292 cells, cholesterol-free media without statin, FDA drug library screen
[19] = NCI-H292 cells, complete media, FDA drug library screen
[20] = complete vs cholesterol-free media, >0 enhanced anti-cancer activity, about 0 neutral, <0 antagonist
[21] = Complete minus Cholesterol-free, greater than 0 enhanced anti-cancer activity, about 0 neutral, below 0 antagonists
[22] = NCI-H292 cells in cholesterol-free media without statin
[23] = NCI-H292 cells in complete media
[24] = NCI-H292 cells, cholesterol-free media with simvastatin 0.04 μM, cell growth value in FDA drug screen
[25] = NCI-H292 cells, complete media, cell growth value in FDA drug screen
[26] = NCI-H292 cells, FDA library drug in cholesterol-free media with simvastatin 0.04 μM
[27] = NCI-H292 cells, FDA library drug in complete media

Compound: CCOC(=O)c1cncn1[C@H](C)c1ccccc1 [Etomidate]
- Cholesterol-free media + simvastatin (0.04 μM) [1, 3]: 0.9001
- Complete Media [1, 4]: 1.134
- Difference ([1]; complete media minus cholesterol-free media + simvastatin, […]): 0.23
- Cholesterol-free [2, 5]: 1.122
- Complete ([2]; NCI-H292 cells, complete media): 0.7993
- Difference ([2]; complete vs cholesterol-free media, […]): −0.32

Compound: COc1ncnc(NS(=O)(=O)c2ccc(N)cc2)c1OC [Sulfadoxine]
- Cholesterol-free media + simvastatin (0.04 μM) [1, 6]: 1.1
- Complete Media [1, 7]: 1.093
- Difference [1, 8]: −0.01
- Difference [2, 9]: −0.27
- Cholesterol-free [2, 5]: 1.26
- Complete ([2]; NCI-H292 cells, complete media): 0.986

Compound: C[n+]1ccccc1C=NO.[I-] [Pralidoxime (iodide)]
- Cholesterol-free media + simvastatin (0.04 μM) [1, 3]: 0.9948
- Complete Media [1, 4]: 0.8823
- Difference [1, 10]: −0.11
- Difference [2, 11]: −0.07
- Cholesterol-free [2, 12]: 1.049
- Complete [2, 4]: 0.9757

Compound: CCN(CC)CCOc1ccc2c(c1)C(=O)c1cc(OCCN(CC)CC)ccc1-2 [Tilorone (dihydrochloride)]
- Cholesterol-free media + simvastatin (0.04 μM) [1, 13]: 1.099
- Complete Media [1, 14]: 0.8748
- Difference [1, 15]: −0.22
- Difference [2, 9]: −0.30
- Cholesterol-free [2, 5]: 1.404
- Complete ([2]; NCI-H292 cells, complete media): 1.104

Compound: O=Cc1ccc(O[C@@H]2O[C@H](CO)[C@@H](O)[C@@H](O)[C@H]2O)cc1 [Helicid]
- Cholesterol-free media + simvastatin (0.04 μM) [1, 13]: 1.093
- Complete Media [1, 14]: 0.9239
- Difference [1, 10]: −0.17
- Difference [2, 11]: −0.20
- Cholesterol-free [2, 5]: 1.202
- Complete ([2]; NCI-H292 cells, complete media): 1.003

Compound: Cisatracurium (besylate)
- Cholesterol-free media + simvastatin (0.04 μM) [1, 3]: 1.09
- Complete Media [1, 4]: 1.349
- Difference [1, 16]: 0.26
- Difference [2, 17]: −0.15
- Cholesterol-free [2, 12]: 1.321
- Complete [2, 4]: 1.173

Compound: COc1cc2c(Nc3ccc(Br)cc3F)ncnc2cc1OCC1CCN(C)CC1 [Vandetanib]
- Cholesterol-free media + simvastatin (0.04 μM) [1, 3]: 0.4174
- Complete Media [1, 4]: 0.7391
- Difference [1, 16]: 0.32
- Cholesterol-free [2, 18]: 0.1902
- Complete [2, 19]: 0.3633
- Difference [2, 20]: 0.17

Compound: OCC(O)CN1CCN(c2ccccc2)CC1 (centres unmarked) [Dropropizine]
- Cholesterol-free media + simvastatin (0.04 μM) [1, 13]: 1.188
- Complete Media [1, 14]: 0.9581
- Difference [1, 15]: −0.23
- Difference [2, 21]: −0.56
- Cholesterol-free [2, 22]: 1.559
- Complete [2, 23]: 1

Compound: O=C(O)c1ccc(NC(=O)[C@H](Cc2ccc(O)cc2)NC(=O)c2ccccc2)cc1 [Bentiromide]
- Cholesterol-free media + simvastatin (0.04 μM) [1, 13]: 0.9161
- Complete Media [1, 14]: 0.7117
- Difference [1, 15]: −0.20
- Difference [2, 9]: −0.23
- Cholesterol-free [2, 5]: 1.105
- Complete ([2]; NCI-H292 cells, complete media): 0.8729

Compound: CSCCNc1nc(SCCC(F)(F)F)nc2c1ncn2[C@@H]1O[C@H](COP(=O)([O-])OP(=O)([O-])C(Cl)(Cl)P(=O)([O-])[O-])[C@@H](O)[C@H]1O.[Na+].[Na+].[Na+].[Na+] [Cangrelor (tetrasodium)]
- Cholesterol-free media + simvastatin (0.04 μM) [1, 3]: 1.209
- Complete Media [1, 4]: 1.098
- Difference [1, 10]: −0.11
- Difference [2, 11]: −0.14
- Cholesterol-free [2, 12]: 1.189
- Complete [2, 4]: 1.05

Compound: CN(C)C(=O)Oc1cc(OC(=O)N(C)C)cc(C(O)CNC(C)(C)C)c1 (centres unmarked) [Bambuterol hydrochloride]
- Cholesterol-free media + simvastatin (0.04 μM) [1, 24]: 1.184
- Complete Media [1, 25]: 1.226
- Difference [1, 16]: 0.04
- Cholesterol-free [2, 18]: 1.362
- Complete [2, 19]: 1.472
- Difference [2, 20]: 0.11

Compound: O=C(O)CC(O)(CC(=O)O)C(=O)O
- Cholesterol-free media + simvastatin (0.04 μM) [1, 24]: 0.864
- Complete Media [1, 25]: 0.9089
- Difference [1, 16]: 0.04
- Difference [2, 9]: −0.20
- Cholesterol-free [2, 5]: 1.776
- Complete ([2]; NCI-H292 cells, complete media): 1.574

Compound: CN(C)CCCN1c2ccccc2Sc2ccc(C(F)(F)F)cc21 [Triflupromazine (hydrochloride)]
- Cholesterol-free media + simvastatin (0.04 μM) [1]: 0.02542
- Complete Media [1]: 1.475
- Difference [1]: 1.45
- Cholesterol-free [2]: 0.9938
- Complete [2]: 0.8066
- Difference [2]: −0.19

Compound: Nc1cc(-c2ccncc2)c[nH]c1=O [Amrinone]
- Cholesterol-free media + simvastatin (0.04 μM) [1, 13]: 1.157
- Complete Media [1, 14]: 0.9441
- Difference [1, 15]: −0.21
- Difference [2, 21]: −0.48
- Cholesterol-free [2, 22]: 1.339
- Complete [2, 23]: 0.861

Compound: O=C(CCCc1ccccc1)OCC(COC(=O)CCCc1ccccc1)OC(=O)CCCc1ccccc1 [Glycerol phenylbutyrate]
- Cholesterol-free media + simvastatin (0.04 μM) [1, 26]: 1.737
- Complete Media [1, 27]: 1.34
- Difference [1, 15]: −0.40
- Difference [2, 17]: −0.17
- Cholesterol-free [2, 12]: 1.054
- Complete [2, 4]: 0.8817

Compound: Cc1cccc(N2CC(CO)OC2=O)c1 (centres unmarked) [Toloxatone]
- Cholesterol-free media + simvastatin (0.04 μM) [1, 6]: 1.023
- Complete Media [1, 7]: 1.032
- Difference [1, 8]: 0.01
- Difference [2, 21]: −0.48
- Cholesterol-free [2, 22]: 1.574
- Complete [2, 23]: 1.099

Compound: O=c1ccc2ccc(O)c(O)c2o1 [Daphnetin]
- Cholesterol-free media + simvastatin (0.04 μM) [1, 13]: 1.124
- Complete Media [1, 14]: 0.9139
- Difference [1, 15]: −0.21
- Difference [2, 9]: −0.27
- Cholesterol-free [2, 5]: 1.207
- Complete ([2]; NCI-H292 cells, complete media): 0.9359

Compound: O=C(O[C@H]1CN2CCC1CC2)N1CCc2ccccc2[C@@H]1c1ccccc1 [Solifenacin]
- Cholesterol-free media + simvastatin (0.04 μM) [1, 26]: 1.222
- Complete Media [1, 27]: 0.9497
- Difference [1, 15]: −0.27
- Difference [2, 9]: −0.26
- Cholesterol-free [2, 5]: 1.142
- Complete ([2]; NCI-H292 cells, complete media): 0.8797

Compound: CNCCC=C1c2ccccc2CCc2ccccc21 [Nortriptyline (hydrochloride)]
- Cholesterol-free media + simvastatin (0.04 μM) [1, 13]: 1.16
- Complete Media [1, 14]: 0.9078
- Difference [1, 15]: −0.25
- Cholesterol-free [2, 5]: 1.336
- Complete ([2]; NCI-H292 cells, complete media): 1.01
- Difference ([2]; complete vs cholesterol-free media, greater than 0 enhanced anti-cancer activity, about 0 neutral, below 0 antagonists): −0.33

Compound: COc1ccc(-c2cc(=O)c3c(O)cc(O[C@@H]4O[C@H](CO[C@@H]5O[C@@H](C)[C@H](O)[C@@H](O)[C@H]5O)[C@@H](O)[C@H](O)[C@H]4O)cc3o2)cc1O [Diosmin]
- Cholesterol-free media + simvastatin (0.04 μM) [1, 3]: 1.252
- Difference [1, 15]: −0.10
- Cholesterol-free [2, 18]: 0.7178
- Complete [2, 19]: 1.465
- Difference [2, 20]: 0.75

Compound: NC(=O)c1ncn([C@@H]2O[C@H](CO)[C@@H](O)[C@H]2O)n1 [Ribavirin]
- Cholesterol-free media + simvastatin (0.04 μM) [1, 13]: 0.9314
- Complete Media [1, 14]: 0.6899
- Difference [1, 15]: −0.24
- Difference [2, 17]: −0.11
- Cholesterol-free [2, 12]: 0.8402
- Complete [2, 4]: 0.7281

Compound: C/C(=C\C(=O)OCCCCCCCCC(=O)O)C[C@@H]1OC[C@H](C[C@@H]2O[C@H]2[C@@H](C)[C@H](C)O)[C@@H](O)[C@H]1O [Mupirocin]
- Cholesterol-free media + simvastatin (0.04 μM) [1, 26]: 1.454
- Complete Media [1, 27]: 1.069
- Difference [1, 15]: −0.38
- Cholesterol-free [2, 18]: 0.7089
- Complete [2, 19]: 1.063
- Difference [2, 20]: 0.35

Compound: CCN1CCCC1CNC(=O)c1cc(S(=O)(=O)CC)c(N)cc1OC (centres unmarked) [Amisulpride]
- Cholesterol-free media + simvastatin (0.04 μM) [1, 24]: 0.8703
- Complete Media [1, 25]: 0.9333
- Difference [1, 16]: 0.06
- Cholesterol-free [2, 18]: 1.175
- Complete [2, 19]: 1.349
- Difference [2, 20]: 0.17
